The target of the assay is T1, Cbl-B (Homo sapiens, UniProt Q13191).
T1 construct: MSD-Based Assay for Degradation of Cbl-B in THP-1 Cells; endogenous in cells; host or cells: THP-1 (title) / Jurkat (protocol text)
The assay is described as follows: MSD-based assay for degradation of Cbl-B in THP-1 cells. It is filed as cell-based. The method in brief: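 THP-1 cells were treated with compound for 24 h at 37 °C. Cbl-B in lysates was quantified by MSD sandwich immunoassay, with anti-Cbl-B capture antibody at 1 ug/mL and SULFO-TAG anti-rabbit detection. Maximal degradation (Dmax) was binned as A >70%, B 50–70%, C 30–50%, D <30%.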

Where [1] appears, read: Cbl-B degradation, Jurkat cells seeded (heading: THP-1 cells), 24 hours incubation, MSD readout.
The mark [2] stands for this setting: Cbl-B degradation, Jurkat cells seeded (heading: THP-1 cells), 24 hours incubation, MSD readout, read-out: Dmax.

Like-named read-outs stand apart in the source and are kept apart here.

T1 sequence (Q13191 whole entry): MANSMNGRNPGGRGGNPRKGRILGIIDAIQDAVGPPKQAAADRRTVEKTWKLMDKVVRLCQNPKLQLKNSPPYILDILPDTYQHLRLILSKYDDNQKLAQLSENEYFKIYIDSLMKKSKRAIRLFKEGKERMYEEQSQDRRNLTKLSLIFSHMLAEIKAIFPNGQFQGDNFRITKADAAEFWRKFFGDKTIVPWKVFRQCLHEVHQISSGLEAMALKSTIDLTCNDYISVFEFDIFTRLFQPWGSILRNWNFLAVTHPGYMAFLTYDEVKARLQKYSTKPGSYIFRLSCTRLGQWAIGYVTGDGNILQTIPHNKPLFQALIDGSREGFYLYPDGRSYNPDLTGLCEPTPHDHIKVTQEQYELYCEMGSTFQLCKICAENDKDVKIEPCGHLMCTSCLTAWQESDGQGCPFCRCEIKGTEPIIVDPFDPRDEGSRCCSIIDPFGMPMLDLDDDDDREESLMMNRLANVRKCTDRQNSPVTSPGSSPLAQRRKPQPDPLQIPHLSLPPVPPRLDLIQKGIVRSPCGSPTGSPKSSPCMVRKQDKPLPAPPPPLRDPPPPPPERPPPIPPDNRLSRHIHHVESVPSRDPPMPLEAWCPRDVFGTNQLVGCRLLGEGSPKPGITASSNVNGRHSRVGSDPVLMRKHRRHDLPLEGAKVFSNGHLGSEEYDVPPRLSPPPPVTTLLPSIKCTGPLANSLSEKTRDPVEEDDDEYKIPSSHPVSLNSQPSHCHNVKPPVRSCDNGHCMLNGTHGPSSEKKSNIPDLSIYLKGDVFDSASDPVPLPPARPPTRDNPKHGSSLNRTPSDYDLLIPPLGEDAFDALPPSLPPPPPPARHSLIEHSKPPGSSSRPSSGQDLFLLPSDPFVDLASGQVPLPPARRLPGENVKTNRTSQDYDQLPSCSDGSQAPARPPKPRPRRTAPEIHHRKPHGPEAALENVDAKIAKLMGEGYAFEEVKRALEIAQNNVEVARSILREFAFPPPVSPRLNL

Take `Cn1cnnc1[C@@H](c1cccc(-n2cc3c(C(F)(F)F)cc(CN4CCN(C(=O)Cc5ccc(C6CCN(c7ccc8c(c7)CN([C@H]7CCC(=O)NC7=O)C8=O)CC6)cc5)CC4)cn3c2=O)c1)C1CCC1` (single isomer, unassigned) [Compound 202]: the DC50 under setting [1] is below 30 nM. The Dmax under setting [2] was above 70%.

In the case of `Cn1cnnc1CC1(c2cccc(-n3cc4c(C(F)(F)F)cc(CN5CCC(OCc6ccc(C7CCN(c8ccc9c(c8)CN([C@@H]8CCC(=O)NC8=O)C9=O)CC7)cc6)CC5)cn4c3=O)c2)COC1` (single isomer, unassigned) [Compound 205], the DC50 under setting [1] was 30 to 300 nM. Besides, under setting [2], the Dmax is 30 to 50%.

Under setting [1], `Cn1cnnc1CC1(c2cccc(-n3cc4c(C(F)(F)F)cc(CN5CCC(OCc6ccc(C7CCN(c8ccc9c(c8)CN([C@H]8CCC(=O)NC8=O)C9=O)CC7)cc6)CC5)cn4c3=O)c2)COC1` (single isomer, unassigned) [Compound 206] registered a DC50 of 30 to 300 nM. Further, under setting [2], the Dmax was 50 to 70%.

For `Cn1cnnc1[C@@H](c1cccc(-n2cc3c(C(F)(F)F)cc(CN4CCC(OCc5cccc(CN6CCN(c7ccc8c(c7)CN([C@@H]7CCC(=O)NC7=O)C8=O)CC6)c5)CC4)cn3c2=O)c1)C1CCC1` (single isomer, unassigned) [Compound 207], the DC50 under setting [1] was above 10000 nM. Further, the Dmax under setting [2] is below 30%.

Take `Cn1cnnc1[C@@H](c1cccc(-n2cc3c(C(F)(F)F)cc(CN4CCC(OCc5cccc(CN6CCN(c7ccc8c(c7)CN([C@H]7CCC(=O)NC7=O)C8=O)CC6)c5)CC4)cn3c2=O)c1)C1CCC1` (single isomer, unassigned) [Compound 208]: under setting [1], the DC50 is above 10000 nM. In addition, under setting [2], the Dmax is below 30%.

Under setting [1], `Cn1cnnc1[C@@H](c1cccc(-n2cc3c(C(F)(F)F)cc(CN4CCN(c5ccc(C(=O)N6CCC(C7CCN(c8ccc9c(c8)CN([C@@H]8CCC(=O)NC8=O)C9=O)CC7)CC6)cc5)CC4)cn3c2=O)c1)C1CCC1` (single isomer, unassigned) [Compound 209] gave a DC50 of 1000 to 10000 nM. Further, the Dmax under setting [2] was below 30%.

On to `Cn1cnnc1[C@@H](c1cccc(-n2cc3c(C(F)(F)F)cc(CN4CCN(c5ccc(C(=O)N6CCC(C7CCN(c8ccc9c(c8)CN([C@H]8CCC(=O)NC8=O)C9=O)CC7)CC6)cc5)CC4)cn3c2=O)c1)C1CCC1` (single isomer, unassigned) [Compound 210], for which the DC50 under setting [1] was below 30 nM. The Dmax under setting [2] was above 70%.

Compound `CN(CCN(C)C(=O)c1ccc(C2CCN(c3ccc4c(c3)CN([C@@H]3CCC(=O)NC3=O)C4=O)CC2)cc1)Cc1cc(C(F)(F)F)c2cn(-c3cccc([C@H](c4nncn4C)C4CCC4)c3)c(=O)n2c1` (single isomer, unassigned) [Compound 211] returned a DC50 under setting [1] above 10000 nM. In addition, the Dmax under setting [2] was below 30%.

`CN(CCN(C)C(=O)c1ccc(C2CCN(c3ccc4c(c3)CN([C@H]3CCC(=O)NC3=O)C4=O)CC2)cc1)Cc1cc(C(F)(F)F)c2cn(-c3cccc([C@H](c4nncn4C)C4CCC4)c3)c(=O)n2c1` (single isomer, unassigned) [Compound 212] had a DC50 under setting [1] above 10000 nM. The Dmax under setting [2] was below 30%.

As for `Cn1cnnc1[C@@H](c1cccc(-n2cc3c(C(F)(F)F)cc(CN4CCC(OCc5ccc(C6CCN(c7ccc8c(c7)CN([C@@H]7CCC(=O)NC7=O)C8=O)CC6)cc5)CC4)cn3c2=O)c1)C1CCC1` (single isomer, unassigned) [Compound 213], the DC50 under setting [1] is above 10000 nM. Further, the Dmax under setting [2] is below 30%.

As to `Cn1cnnc1[C@@H](c1cccc(-n2cc3c(C(F)(F)F)cc(CN4CCC(OCc5ccc(C6CCN(c7ccc8c(c7)CN([C@H]7CCC(=O)NC7=O)C8=O)CC6)cc5)CC4)cn3c2=O)c1)C1CCC1` (single isomer, unassigned) [Compound 214], the DC50 under setting [1] lay within 30 to 300 nM. The Dmax under setting [2] is 30 to 50%.

With `Cn1cnnc1[C@@H](c1cccc(-n2cc3c(C(F)(F)F)cc(CN4CCC(OCc5ccc(CC6CCN(c7ccc8c(c7)CN([C@@H]7CCC(=O)NC7=O)C8=O)CC6)cc5)CC4)cn3c2=O)c1)C1CCC1` (single isomer, unassigned) [Compound 217], under setting [1], the DC50 lay in the range of 300 to 1000 nM. Under setting [2], the Dmax was 30 to 50%.

Under setting [1], `Cn1cnnc1[C@@H](c1cccc(-n2cc3c(C(F)(F)F)cc(CN4CCC(OCc5ccc(CC6CCN(c7ccc8c(c7)CN([C@H]7CCC(=O)NC7=O)C8=O)CC6)cc5)CC4)cn3c2=O)c1)C1CCC1` (single isomer, unassigned) [Compound 218] returned a DC50 below 30 nM. Besides, under setting [2], the Dmax is above 70%.

In the case of `Cn1cnnc1CC1(c2cccc(-n3cc4c(C(F)(F)F)cc(CN5CCC(OCCOCc6ccc(CN7CCN(c8ccc9c(c8)CN([C@@H]8CCC(=O)NC8=O)C9=O)CC7)cc6)CC5)cn4c3=O)c2)COC1` (single isomer, unassigned) [Compound 219], the DC50 under setting [1] lay within 30 to 300 nM. Besides, the Dmax under setting [2] was in the range of 50 to 70%.

The compound `Cn1cnnc1CC1(c2cccc(-n3cc4c(C(F)(F)F)cc(CN5CCC(OCCOCc6ccc(CN7CCN(c8ccc9c(c8)CN([C@H]8CCC(=O)NC8=O)C9=O)CC7)cc6)CC5)cn4c3=O)c2)COC1` (single isomer, unassigned) [Compound 220] registered a DC50 under setting [1] below 30 nM. Besides, the Dmax under setting [2] was above 70%.

Under setting [1], `Cn1cnnc1[C@@H](c1cccc(-n2cc3c(C(F)(F)F)cc(CN4CCC(O[C@@H]5CCCN(C(=O)c6ccc(N7CCN(c8ccc9c(c8)CN([C@@H]8CCC(=O)NC8=O)C9=O)CC7)cc6)C5)CC4)cn3c2=O)c1)C1CCC1` (single isomer, unassigned) [Compound 225] returned a DC50 of 1000 to 10000 nM. Under setting [2], the Dmax was in the range of 30 to 50%.

Consider `Cn1cnnc1[C@@H](c1cccc(-n2cc3c(C(F)(F)F)cc(CN4CCC(O[C@@H]5CCCN(C(=O)c6ccc(N7CCN(c8ccc9c(c8)CN([C@H]8CCC(=O)NC8=O)C9=O)CC7)cc6)C5)CC4)cn3c2=O)c1)C1CCC1` (single isomer, unassigned) [Compound 226], for which the DC50 under setting [1] lay in the range of 30 to 300 nM. Under setting [2], the Dmax was above 70%.

`Cn1cnnc1[C@@H](c1cccc(-n2cc3c(C(F)(F)F)cc(CN4CCN(CCc5ccc(C6CCN(c7ccc8c(c7)CN([C@H]7CCC(=O)NC7=O)C8=O)CC6)cc5)CC4)cn3c2=O)c1)C1CCC1` (single isomer, unassigned) [Compound 228]: the DC50 under setting [1] was below 30 nM. Moreover, the Dmax under setting [2] was above 70%.

Take `CO[C@H]1C[C@](c2cccc(-n3cc4c(C(F)(F)F)cc(CN5CCC(OCc6ccc(CN7CCN(c8ccc9c(c8)CN([C@@H]8CCC(=O)NC8=O)C9=O)CC7)cc6)CC5)cn4c3=O)c2)(c2nncn2C)C1` (single isomer, unassigned) [Compound 231]: under setting [1], the DC50 is 300 to 1000 nM. Further, the greatest degradation seen (Dmax) under setting [2] fell in the range of 30 to 50%.

For `CO[C@H]1C[C@](c2cccc(-n3cc4c(C(F)(F)F)cc(CN5CCC(OCc6ccc(CN7CCN(c8ccc9c(c8)CN([C@H]8CCC(=O)NC8=O)C9=O)CC7)cc6)CC5)cn4c3=O)c2)(c2nncn2C)C1` (single isomer, unassigned) [Compound 232], the DC50 under setting [1] is below 30 nM. The Dmax under setting [2] is above 70%.

Consider `Cn1cnnc1[C@@H](c1cccc(-n2cc3c(C(F)(F)F)cc(CN4CCC[C@@H](COCc5ccc(CN6CCN(c7ccc8c(c7)CN([C@H]7CCC(=O)NC7=O)C8=O)CC6)cc5)C4)cn3c2=O)c1)C1CCC1` (single isomer, unassigned) [Compound 234], for which, under “THP-1”, the Dmax is above 70%.

The compound `Cn1cnnc1CC1(c2cccc(-n3cc4c(C(F)(F)F)cc(CN5CCC[C@@H](OCCc6ccc(CN7CCN(c8ccc9c(c8)CN([C@@H]8CCC(=O)NC8=O)C9=O)CC7)cc6)C5)cn4c3=O)c2)COC1` (single isomer, unassigned) [Compound 239] had a DC50 under setting [1] of 30 to 300 nM. Further, the Dmax under setting [2] fell in the range of 50 to 70%.

Consider `Cn1cnnc1CC1(c2cccc(-n3cc4c(C(F)(F)F)cc(CN5CCC[C@@H](OCCc6ccc(CN7CCN(c8ccc9c(c8)CN([C@H]8CCC(=O)NC8=O)C9=O)CC7)cc6)C5)cn4c3=O)c2)COC1` (single isomer, unassigned) [Compound 240], for which the DC50 under setting [1] is below 30 nM. In addition, under setting [2], the Dmax is above 70%.

For `Cn1cnnc1CC1(c2cccc(-n3cc4c(C(F)(F)F)cc(CN5CCC(OCc6ccc(C(=O)N7CCN(c8ccc9c(c8)CN([C@@H]8CCC(=O)NC8=O)C9=O)CC7)cc6)CC5)cn4c3=O)c2)COC1` (single isomer, unassigned) [Compound 243], under setting [1], the DC50 is 30 to 300 nM. The Dmax under setting [2] was above 70%.

For `Cn1cnnc1CC1(c2cccc(-n3cc4c(C(F)(F)F)cc(CN5CCC(OCc6ccc(C(=O)N7CCN(c8ccc9c(c8)CN([C@H]8CCC(=O)NC8=O)C9=O)CC7)cc6)CC5)cn4c3=O)c2)COC1` (single isomer, unassigned) [Compound 244], the DC50 under setting [1] was below 30 nM. In addition, the Dmax under setting [2] was above 70%.

Take `CN(C(=O)c1ccc(CN2CCN(c3ccc4c(c3)CN([C@@H]3CCC(=O)NC3=O)C4=O)CC2)cc1)C1CCN(Cc2cc(C(F)(F)F)c3cn(-c4cccc(C5(Cc6nncn6C)COC5)c4)c(=O)n3c2)CC1` (single isomer, unassigned) [Compound 245]: under setting [1], the DC50 was 300 to 1000 nM. In addition, under setting [2], the Dmax lay in the range of 30 to 50%.

`CN(C(=O)c1ccc(CN2CCN(c3ccc4c(c3)CN([C@H]3CCC(=O)NC3=O)C4=O)CC2)cc1)C1CCN(Cc2cc(C(F)(F)F)c3cn(-c4cccc(C5(Cc6nncn6C)COC5)c4)c(=O)n3c2)CC1` (single isomer, unassigned) [Compound 246]: the DC50 under setting [1] was below 30 nM. Moreover, the Dmax under setting [2] was above 70%.

`Cn1cnnc1[C@@H](c1cccc(-n2cc3c(C(F)(F)F)cc(CN4CCC(O[C@H]5CCCN(C(=O)c6ccc(N7CCN(c8ccc9c(c8)CN([C@@H]8CCC(=O)NC8=O)C9=O)CC7)cc6)C5)CC4)cn3c2=O)c1)C1CCC1` (single isomer, unassigned) [Compound 247]: under setting [1], the DC50 was 300 to 1000 nM. Moreover, the Dmax under setting [2] lay in the range of 30 to 50%.
